Measured values reported in US5606038A, “Amphiphilic polyene macrolide antibiotic compounds” (Competitive Technologies, Inc., priority 1995, dated 1997).
Values after ≈ are worked out from the molar mass of the structure shown. Read-outs that look alike come from different tables or passages of the source.

Experiments:
[1] = test system: Cryptococcus neoformans; assay: minimum inhibitory concentration, Cryptococcus neoformans, broth microdilution; format: cell-based; conditions: 24 h
Method: (§1) Microorganism inocula was harvested from one to five day old cultures grown on Sabourand's dextrose agar. After two washes with sterile saline, the inocula were counted utilizing a hemacytometer and diluted or concentrated as required to 1×10^4 blastospores per ml. Sterile molten agar (at 50° C.) was inoculated, allowed to cool, and 10 mm diameter discs impregnated (from […] stock solutions) with each of the test compounds was placed on the surface of the agar. Zones of inhibition were measured after incubating the plates at 30° C. for 24-48 hours.
(§2) The compounds were then screened against three strains of three species of microorganisms: Candida albicans, Cryptococcus neoformans, and Aspergillus fumigatus using a conventional double dilution technique. All tests reported in Table II were done by broth microdilution in yeast nitrogen base-glucose using an inoculum of 1×10^4 blastospores per ml; the cultures were incubated at 37° C. for 24 hours, and the minimum concentration (in μg/ml) that prevents visible growth was recorded as the minimum inhibitory concentration.

[2] = solubility in water; format: physicochemical
[3] = test system: Histoplasma capsulatum, Cryptococcus neoformans, and several species of Candida, including C. glabrata and C. albicans; conditions: cited from earlier work
[4] = critical micelle concentration in PBS by molar absorptivity at 409 nm; format: physicochemical; conditions: PBS (pH 7.4), 37° C.
Excerpt: In its monomeric state, Amphotericin B has a characteristic absorption band at 409 nm; upon aggregation, however, its apparent molar absorptivity decreases in magnitude [see Biochemistry 30:5707 (1991)]. Thus, by measuring its molar absorptivity as a function of the reciprocal of the macrolide concentration, one can estimate the critical micelle concentration. This can be shown mathematically by allowing T, m and P to represent the total, monomeric, and micellar concentrations (i.e. the concentration of the drug that is present in micellar form) of the macrolide, respectively, and if ε represents the apparent molar absorptivity and εm and εp are the molar absorptivity for the monomeric and micellar components, respectively, then it can be shown that ε=εp +(εm -εp)m/T. At concentrations in excess of the critical micelle concentration, m is a constant and ε is inversely proportional to T.
Using the method described previously, the critical micelle concentrations for Amphotericin B and the conjugates described in the preceding examples were determined and are reported in Table I describing the aggregation, antifungal and hemolytic properties of […] macrolide antibiotics (in μM amounts) according to the present invention.
^a critical micelle concentration was determined in PBS (pH 7.4) at […]

[5] = test system: Aspergillus fumigatus; assay: minimum inhibitory concentration, Aspergillus fumigatus, broth microdilution; format: cell-based; conditions: 24 h, 37° C.
Method: as §1, §2

[6] = test system: Candida albicans; assay: minimum inhibitory concentration, Candida albicans, broth microdilution; format: cell-based; conditions: 24 h, 37° C.
Method: ^c minimum inhibitory concentration (see Example IV); three different
strains of Candida albicans were tested; all tests were done in broth
microdilution in yeast nitrogen baseglucose at 37° C. for 24 hours
the initial inoculum was 1 × 10^4 blastospores per ml
The minimum inhibitory concentration reported in Table I was obtained, and further confirmed as reported in Table II, by the methods described in the following Example IV.
as §1, §2

[7] = test system: Candida albicans (isolate NIH A); assay: survival of mice infected with Candida albicans (Example V); format: in vivo, Candida albicans in ICR mice; conditions: i.p. once per day for ten days, Example II 30 mg/kg, Amphotericin B 1 mg/kg
Excerpt: Ten immunocompetent ICR mice weighing 30 g each in three groups were inoculated intravenously with 3.2×10^6 colony forming units of Candida albicans (isolate NIH A) per mouse.

[8] = test system: Candida albicans; assay: K+ release from fungal cells; format: cell-based; conditions: 3×10^7 fungal cells/ml, read-out: concentration for releasing 50% of the K+ from fungal cells
[9] = in solution; literature; cited from earlier work
[10] = test system: human red blood cells; assay: hemolysis, 50% release of hemoglobin from human red blood cells; conditions: hemoglobin release from human red blood cells
[11] = in vitro; conditions: human, red blood cells
[12] = test system: fungal organisms; conditions: compared with Amphotericin B; cited from earlier work
[13] = test system: mammalian cells; conditions: compared with Amphotericin B; cited from earlier work
[14] = C. neoformans (1), 37° C., read-out: minimum inhibitory concentration
[15] = C. neoformans (2), 37° C., read-out: minimum inhibitory concentration
[16] = read-out: minimum inhibitory concentration, C. neofornams (3), 37° C.
[17] = C. albicans (1), read-out: minimum inhibitory concentration
[18] = C. albicans (2), read-out: minimum inhibitory concentration
[19] = C. albicans (3), read-out: minimum inhibitory concentration
[20] = three strains of Candida albicans, yeast nitrogen base-glucose, 1 × 10^4 blastospores per ml, read-out: MIC (minimum inhibitory concentration)

Structure (SMILES) | MIC [1, 14] [µg/mL] | MIC [1, 15] [µg/mL] | MIC [1, 16] [µg/mL] | cmc (critical micelle concentration) [4] [µM] | MIC ([5]; A. fumigatus (1)) [µg/mL] | MIC ([5]; A. fumigatus (2)) [µg/mL] | MIC ([5]; A. fumigatus (3)) [µg/mL] | MIC [6, 17] [µg/mL] | MIC [6, 18] [µg/mL] | MIC [6, 19] [µg/mL] | MIC [6, 20] [µM] | EC50 [8] [nM] | HC50 at 1 h [11] [µM] | further results
C[C@@H]1[C@H](O)[C@@H](C)/C=C/C=C/C=C/C=C/C=C/C=C/C=C/[C@H](O[C@@H]2O[C@H](C)[C@@H](O)[C@H](N)[C@@H]2O)C[C@@H]2O[C@](O)(C[C@@H](O)C[C@@H](O)[C@H](O)CC[C@@H](O)C[C@@H](O)CC(=O)O[C@H]1C)C[C@H](O)[C@H]2C(=O)O [Amphotericin B, reference compound] | 0.8 (≈ 0.866 µM) | 0.8 (≈ 0.866 µM) | 0.8 (≈ 0.866 µM) | 1.1 | 0.8 (≈ 0.866 µM) | 1.6 (≈ 1.73 µM) | 0.8 (≈ 0.866 µM) | 1.6 | 1.6 | 1.6 | 1.7 | 100 | 1.8 | solubility in water ([2]; similar to Example I product (<10 μg/ml)): low solubility; sensitivity to Amphotericin B in vitro [3]: 0.03 to 1.0 µg/mL; percent survival ([7]; day 2 post-infection): 100%; percent survival ([7]; day 3 post-infection): 100%; percent survival ([7]; day 4 post-infection): 100%; percent survival ([7]; day 5 post-infection): 100%; percent survival ([7]; day 6 post-infection): 100%; percent survival ([7]; day 7 post-infection): 90%; percent survival ([7]; day 30 post-infection): 90%; critical micelle concentration [9]: very low critical micelle concentration; concentration needed for hemolysis relative to critical micelle concentration [10]: must be greater than their critical micelle concentration
COCCNC(=O)[C@H]1[C@@H]2C[C@@H](O[C@@H]3O[C@H](C)[C@@H](O)[C@H](N)[C@@H]3O)/C=C/C=C/C=C/C=C/C=C/C=C/C=C/[C@H](C)[C@@H](O)[C@@H](C)[C@H](C)OC(=O)C[C@H](O)C[C@H](O)CC[C@@H](O)[C@H](O)C[C@H](O)C[C@](O)(C[C@@H]1O)O2 [Example I] | 1.6 (≈ 1.63 µM) | 3.2 (≈ 3.26 µM) | 0.8 (≈ 0.815 µM) | 4.4 | 3.2 (≈ 3.26 µM) | 3.2 (≈ 3.26 µM) | 1.6 (≈ 1.63 µM) | 1.6 | 1.6 | 1.6 | 1.6 | 800 | 7.9 | solubility [2]: < 10 µg/mL
C[C@@H]1[C@H](O)[C@@H](C)/C=C/C=C/CC/C=C/C=C/C=C/C=C/C(O[C@H]2O[C@H](C)[C@@H](O)[C@H](N)[C@@H]2O)CC2O[C@](O)(CC(O)C(O)CCC(O)CC(O)CC(O)CC(=O)O[C@H]1C)CC(O)C2C(=O)O (stereo partly shown) [Nystatin] | – | – | – | – | – | – | – | – | – | – | – | – | – | potency against fungal organisms [12]: somewhat lower in potency against fungal organisms as compared with Amphotericin B; toxicity toward mammalian cells [13]: may be far less toxic toward mammalian cells
